Measured values taken from patent US12655116B2, “Substituted isophthalic acid diamides” (Bayer Aktiengesellschaft, priority 2020, dated 2026).
Where “and” joins values, the source holds several entries; their conditions need not be identical. Equal values may be shown once.

Legend:
ABUTH [1] = test: Pre-emergence herbicidal action against ABUTH; assay type: in vivo, Abutilon theophrasti
Outline: (§1)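 Pre-emergence soil-surface spray of formulated compound (WP or EC; 600 to 800 l/ha; 0.2% wetting agent) over seeds sown in sandy loam. After 3 weeks under greenhouse conditions, damage is estimated visually in percent against untreated plants.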

POLCO = test: Pre-emergence herbicidal action against POLCO; assay type: in vivo, Polygonum convolvulus; details: dosage 80 g/ha
Outline: as §1

VIOTR [2] = test: Pre-emergence herbicidal action against VIOTR; assay type: in vivo, Viola tricolor
Outline: as §1

AMARE [3] = test: Pre-emergence herbicidal action against AMARE; assay type: in vivo, Amaranthus retroflexus
Outline: as §1

ECHCG [4] = test: Pre-emergence herbicidal action against ECHCG; assay type: in vivo, Echinochloa crus-galli
Outline: as §1

ALOMY [5] = test: Pre-emergence herbicidal action against ALOMY; assay type: in vivo, Alopecurus myosuroides; details: 80 g/ha, pre-emergence, scored visually after 3 weeks vs untreated controls (100% = plants have died, 0% = like control plants)
Outline: as §1

MATIN [6] = test: Pre-emergence herbicidal action against MATIN; assay type: in vivo, Matricaria inodora
Outline: as §1

PHBPU [7] = test: Pre-emergence herbicidal action against PHBPU; assay type: in vivo, Pharbitis purpurea; details: dosage 80 g/ha
Outline: as §1

VERPE [8] = test: Post-emergence herbicidal action against VERPE; assay type: in vivo, Veronica persica; details: 20 g/ha
Outline: (§2)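 Greenhouse plants in sandy loam were sprayed at the one-leaf stage, 2 to 3 weeks after sowing, with WP or EC formulations as aqueous suspension or emulsion (600 to 800 l/ha water, 0.2% wetting agent). Visual damage was scored about 3 weeks later versus untreated controls, 0% = like control, 100% = dead.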

VERPE [9] = test: Pre-emergence herbicidal action against VERPE; assay type: in vivo, Veronica persica; details: dosage 80 g/ha
Outline: as §1

SETVI [10] = test: Pre-emergence herbicidal action against SETVI; assay type: in vivo, Setaria viridis
Outline: as §1

ALOMY [11] = test: Post-emergence herbicidal action against ALOMY; assay type: in vivo, Alopecurus myosuroides; details: visual assessment about 3 weeks after treatment vs untreated controls
Outline: as §2

VIOTR [12] = test: Post-emergence herbicidal action against VIOTR; assay type: in vivo, Viola tricolor
Outline: as §2

LOLRI = test: Pre-emergence herbicidal action against LOLRI; assay type: in vivo, Lolium rigidum; details: 80 g/ha
Outline: as §1

PHBPU [13] = test: Post-emergence herbicidal action against PHBPU; assay type: in vivo, Pharbitis purpurea
Outline: as §2

AVEFA [14] = test: Pre-emergence herbicidal action against AVEFA; assay type: in vivo, Avena fatua; details: pre-emergence
Outline: as §1

DIGSA [15] = test: Pre-emergence herbicidal action against DIGSA; assay type: in vivo, Digitaria sanguinalis
Outline: as §1

SETVI [16] = test: Post-emergence herbicidal action against SETVI; assay type: in vivo, Setaria viridis
Outline: as §2

ECHCG [17] = test: Post-emergence herbicidal action against ECHCG; assay type: in vivo, Echinochloa crus-galli
Outline: as §2

AMARE [18] = test: Post-emergence herbicidal action against AMARE; assay type: in vivo, Amaranthus retroflexus; details: 20 g/ha, visual assessment about 3 weeks after treatment, 100% = plants have died, 0% = like control plants
Outline: as §2

ABUTH [19] = test: Post-emergence herbicidal action against ABUTH; assay type: in vivo, Abutilon theophrasti; details: visual assessment about 3 weeks after treatment vs untreated controls
Outline: as §2

AVEFA [20] = test: Post-emergence herbicidal action against AVEFA; assay type: in vivo, Avena fatua; details: 20 g/ha, visual assessment about 3 weeks after treatment, 100% = plants have died, 0% = like control plants
Outline: as §2

DIGSA [21] = test: Post-emergence herbicidal action against DIGSA; assay type: in vivo, Digitaria sanguinalis
Outline: as §2

MATIN [22] = test: Post-emergence herbicidal action against MATIN; assay type: in vivo, Matricaria inodora; details: dosage 20 g/ha
Outline: as §2

[23] = Setaria viridis, 504 h, dosage 20 g/ha
[24] = 80 g/ha, scored visually after 3 weeks vs untreated controls (100% = plants have died, 0% = like control plants)

CNC(=O)c1c(C(F)F)ccc(C(=O)Nc2nnnn2C)c1Br [Example 1-225]
pest or weed control at 80 g/ha (ABUTH [1]; Abutilon theophrasti, 504 h, 80 g/ha, scored visually after 3 weeks vs untreated controls (100% = plants have died, 0% = like control plants)): 80% | pest or weed control at 80 g/ha (POLCO; Fallopia convolvulus, 504 h): 90% | pest or weed control at 80 g/ha (VIOTR [2]; Viola tricolor, 504 h, dosage 80 g/ha): 100% | pest or weed control at 20 g/ha (AMARE [3]; Amaranthus retroflexus, 504 h, 20 g/ha, scored visually after 3 weeks vs untreated controls, 100% = plants have died, 0% = like control plants): 100% | pest or weed control at 80 g/ha (AMARE [3]; Amaranthus retroflexus, 504 h, 80 g/ha, scored visually after 3 weeks vs untreated controls, 100% = plants have died, 0% = like control plants): 100% | pest or weed control at 20 g/ha (ECHCG [4]; Echinochloa crus-galli, 504 h, 20 g/ha): 90% | pest or weed control at 80 g/ha (ECHCG [4]; Echinochloa crus-galli, 504 h, 80 g/ha): 100% | pest or weed control at 80 g/ha (ALOMY [5]; Alopecurus myosuroides, 504 h): 100% | pest or weed control at 20 g/ha (MATIN [6]; Tripleurospermum inodorum, 504 h, dosage 20 g/ha): 90% | pest or weed control at 80 g/ha (MATIN [6]; Tripleurospermum inodorum, 504 h, dosage 80 g/ha): 100% | pest or weed control at 80 g/ha (PHBPU [7]; Ipomoea purpurea, 504 h): 100% | pest or weed control at 20 g/ha (VERPE [8]; Veronica persica, 504 h): 90% | pest or weed control at 80 g/ha (VERPE [9]; Veronica persica, 504 h): 80% | pest or weed control at 20 g/ha (SETVI [10]; [23]): 90% | pest or weed control at 80 g/ha (SETVI [10]; Setaria viridis, 504 h, dosage 80 g/ha): 100% | pest or weed control at 20 g/ha (ALOMY [11]; Alopecurus myosuroides, 504 h, dosage 20 g/ha): 90% | pest or weed control at 20 g/ha (VIOTR [12]; Viola tricolor, 504 h, 20 g/ha): 80% | pest or weed control at 80 g/ha (LOLRI; Lolium rigidum, 504 h): 80% | pest or weed control at 20 g/ha (PHBPU [13]; Ipomoea purpurea, 504 h, dosage 20 g/ha): 80% | pest or weed control at 80 g/ha (AVEFA [14]; Avena fatua, 504 h, 80 g/ha): 80% | pest or weed control at 20 g/ha (AVEFA [14]; Avena fatua, 504 h, 20 g/ha, scored visually after 3 weeks, 100% = plants have died, 0% = like control plants): 80% | pest or weed control at 80 g/ha (DIGSA [15]; Digitaria sanguinalis, 504 h, dosage 80 g/ha): 90% | pest or weed control at 5 g/ha (SETVI [16]; Setaria viridis, 504 h, dosage 5 g/ha): 90% | pest or weed control at 20 g/ha (SETVI [16]; [23]): 100% | pest or weed control at 5 g/ha (ECHCG [17]; Echinochloa crus-galli, 504 h, dosage 5 g/ha): 90% | pest or weed control at 20 g/ha (ECHCG [17]; Echinochloa crus-galli, 504 h, dosage 20 g/ha): 100% | pest or weed control at 20 g/ha (AMARE [18]; Amaranthus retroflexus, 504 h): 100% | pest or weed control at 5 g/ha (ABUTH [19]; Abutilon theophrasti, 504 h, dosage 5 g/ha): 80% | pest or weed control at 20 g/ha (ABUTH [19]; Abutilon theophrasti, 504 h, dosage 20 g/ha): 80% | pest or weed control at 20 g/ha (AVEFA [20]; Avena fatua, 504 h): 80% | pest or weed control at 5 g/ha (DIGSA [21]; Digitaria sanguinalis, 504 h, 5 g/ha): 90% | pest or weed control at 20 g/ha (DIGSA [21]; Digitaria sanguinalis, 504 h, 20 g/ha): 90%

CCn1nnnc1NC(=O)c1ccc(C(F)F)c(C(=O)NCC2CC2)c1C [Example 2-47]
Pre-emergence action against ABUTH (herbicidal activity) (ABUTH [1]; [24]): 100% | Pre-emergence action against ABUTH (herbicidal activity in percent) (ABUTH [1]; dosage 20 g/ha, scored visually after 3 weeks vs untreated controls, 100% = plants have died, 0% = like control plants): 100% | Pre-emergence action against POLCO in % (POLCO): 80% | Pre-emergence action against VIOTR in % (VIOTR [2]; dosage 20 g/ha): 80% | Pre-emergence action against VIOTR in % (VIOTR [2]; dosage 80 g/ha): 100% | Pre-emergence action against AMARE in % (AMARE [3]; 20 g/ha, scored visually after 3 weeks vs untreated controls, 100% = plants have died, 0% = like control plants): 100% | Pre-emergence action against AMARE in % (AMARE [3]; [24]): 100% | Pre-emergence action against ECHCG in % (ECHCG [4]; 80 g/ha): 100% | Pre-emergence action against ALOMY (herbicidal activity) (ALOMY [5]): 100% | Pre-emergence action against MATIN in % (MATIN [6]; dosage 20 g/ha): 100% | Pre-emergence action against MATIN in % (MATIN [6]; dosage 80 g/ha): 100% | Pre-emergence action against PHBPU in % (PHBPU [7]): 90% | Post-emergence action against VERPE in % (VERPE [8]): 80% | Post-emergence action against MATIN in % (MATIN [22]): 80% | Pre-emergence action against VERPE in % (VERPE [9]): 100% | Pre-emergence action against SETVI in % (SETVI [10]; dosage 80 g/ha): 100% | Post-emergence action against ALOMY in % (ALOMY [11]; dosage 5 g/ha): 80% | Post-emergence action against ALOMY in % (ALOMY [11]; dosage 20 g/ha): 90% | Post-emergence action against VIOTR in % (VIOTR [12]; 5 g/ha): 80% | Post-emergence action against VIOTR in % (VIOTR [12]; 20 g/ha): 90% and 80% | Pre-emergence action against LOLRI in % (LOLRI): 80% | Post-emergence action against PHBPU in % (PHBPU [13]; dosage 5 g/ha): 80% | Post-emergence action against PHBPU in % (PHBPU [13]; dosage 20 g/ha): 90% | Pre-emergence action against AVEFA in % (AVEFA [14]; 80 g/ha): 80% | Pre-emergence action against DIGSA in % (DIGSA [15]; dosage 20 g/ha): 100% | Pre-emergence action against DIGSA in % (DIGSA [15]; dosage 80 g/ha): 100% | Post-emergence action against SETVI in % (SETVI [16]; dosage 20 g/ha): 90% | Post-emergence action against ECHCG in % (ECHCG [17]; dosage 5 g/ha): 80% | Post-emergence action against ECHCG in % (ECHCG [17]; dosage 20 g/ha): 90% and 80% | Post-emergence action at 20 g/ha against AMARE in % (AMARE [18]): 90% and 100% | Post-emergence action against ABUTH in % (ABUTH [19]; dosage 5 g/ha): 90% and 80% | Post-emergence action against ABUTH in % (ABUTH [19]; dosage 20 g/ha): 90% | Post-emergence action at 20 g/ha against AVEFA in % (AVEFA [20]): 80% | Post-emergence action against DIGSA in % (DIGSA [21]; 5 g/ha): 90% | Post-emergence action against DIGSA (DIGSA [21]; 20 g/ha): 90%
